In paper PMC4265539, “Inhibition of Neutrophil Collagenase/MMP-8 and Gelatinase B/MMP-9 and Protection against Endotoxin Shock” (Journal of Immunology Research, 2014):
Where two headings read alike, the source gives them in different places. Non-standard residues stand in square brackets, D forms with d. Residues, ends and D or L forms follow the SMILES beside them. No end group written: not given here. Bip = N[C@@H](Cc1ccc(-c2ccccc2)cc1)C(=O)O; d3Pal = N[C@H](Cc1cccnc1)C(=O)O

What was measured:
[1] = system: Swiss mice, LPS endotoxin shock; experiment: Endotoxin shock mouse model, survival after LPS challenge; type: in vivo
Protocol: (§1) The protective effect of all inhibitors was evaluated in a similar way. P2 (90 mg/kg P2) was used at a similar molar concentration as Regasepin 2. The effect of lower dosages of P2 (30 mg/kg and 10 mg/kg) was also evaluated in parallel experiments. The details of the animal experiments, including grouping of mice, number of mice in each group, reagent concentrations, and ways of administration, are shown in Table 2. The peptides were administered intravenously 5 minutes after LPS injection.
The protective effects via intravenous injection were evaluated in groups of 6 mice, intravenously injected with 100 μL (7 mg/mL; 35 mg/kg) Regasepin 2 or Inhibitor 2 (35 mg/kg) 5 minutes after intravenous injection of LPS (200 μg per mouse). The numbers of surviving mice were recorded regularly after LPS administration. Kaplan-Meier survival curves were generated. P values were calculated compared with the survival rates of the negative control group. The experiments were performed two times.
Regasepin 2 via intravenous injection (35 mg/kg) was used as a positive control peptide. 200 μL P2 (15 mg/mL) was administered intraperitoneally (150 mg/kg) 30, 60, or 90 minutes before intravenous LPS challenge (200 μg per mouse) to evaluate the effect of P2 via this administration route. The protective effects of a single intravenous injection of P2 (10 mg/kg) and two times intravenous administration of P2 (10 mg/kg) with 2 hours interval were also included and compared.
Results were represented as mean ± SD. Statistical significance was assessed using statistics software SPSS13.0. Two-way analysis of variance (ANOVA) was used to test for differences between groups. For all statistical comparisons, positive groups were compared with negative controls, and ^* P < 0.05 or ^** P < 0.01 were considered statistically significant.

[2] = mouse, in vivo, ip, 150 mg/kg
Protocol: (§2) The concentration of P2-BSA that was used to coat the plates and the reagent concentration of the P2-specific polyclonal antibody were optimized by two-dimensional serial dilution tests. 96-well microtiter plates were coated with a solution of 6 μg/mL P2-BSA in 0.05 M sodium bicarbonate (pH 9.6) and the plate was kept overnight at 4°C. After washing the plate three times, the plate was blocked with 0.1 M PBS (pH 7.4) containing 10% (V/V) skim milk at 37°C for 1.5 h. To perform the competition ELISA between P2 and the immobilized P2-BSA, P2-specific antibody (1000 times serum dilution) was added to the wells in the presence of plasma or standard samples at 37°C for 1.5 h. After washing the plate three times, 100 μL of horseradish peroxidase-conjugated goat anti-rabbit IgG (1 : 2000) was added and incubated for 1 h at 37°C. After washing three times, the tetramethylbenzidine (TMB) substrate (100 μL/well) was added and the reaction was executed for 15 min. The reactions were stopped with 2 M sulfuric acid (50 μL/well). The absorbance of each well at 450 nm was detected with an automated ELISA reader. The calibration curve was expressed according to the fact that 1-B/B0 are linear with log C (where B0 is the OD value in the absence of P2 in plasma, B is the OD value at serial concentrations of P2 in plasma, and C is the P2 concentration, resp.). The indirect ELISA procedures were conducted in duplicate with a set of standard concentrations of P2 in diluted mouse serum in order to determine the mathematical fitting equation and linear detection range.
(§3) Adult female Swiss mice, 5 animals per group, were used for the pharmacokinetic studies. P2 (90 mg/kg, 30 mg/kg, or 10 mg/kg) was dissolved in sterile 0.9% saline and was administered intravenously. Blood samples were collected through the canthus at 0, 3, 6, 9, 12, 15, and 30 min. For intraperitoneal injection of P2, 150 mg/kg P2 dissolved in 0.9% saline was administered and blood samples were collected through the canthus at 0, 13, 20, 40, 68, 100, 127, and 168 minutes.
(§4) Blood samples were immediately centrifuged (12000 rpm for 30 seconds), and the supernatants were taken and diluted 10, 30, or 300 times with PBS, prewarmed at 80°C in a water bath. The diluted samples were kept at 80°C for another 30 min to remove enzyme activity of the plasma components. Samples were diluted with prewarmed PBS so that the final concentration of P2 was within the linear range of the standard line. After another centrifugation (12000 rpm for 2 min), the diluted samples were analyzed by ELISA to measure the plasma P2 concentrations.

[3] = mouse, in vivo
Protocol: as §2, §3, §4

MMP-8 = conditions: cited from earlier work
Excerpt: Table 1 Peptide sequences and their IC50 values in μM against target enzymes. | column: MMP-8

MMP-9 = conditions: cited from earlier work
Excerpt: Table 1 Peptide sequences and their IC50 values in μM against target enzymes. | column: MMP-9

TACE = conditions: cited from earlier work
Excerpt: Table 1 Peptide sequences and their IC50 values in μM against target enzymes. | column: TACE

[4] = rat; cited from earlier work
Excerpt: The pharmacokinetics of P2 by intraperitoneal injection was also investigated.

[5] = system: Swiss mice, LPS endotoxin shock; conditions: 100 μL (7 mg/mL), 35 mg/kg iv 5 minutes after iv LPS, ref [9]; cited from earlier work
Protocol: as §1, with “ea ...” for “each group, reagent concentrations, and ways of administration, are shown in Table 2. The peptides were administered intravenously 5 minutes after LPS injection.”

In the case of `CC[C@H](C)[C@H](NC(=O)CNC(=O)CNC(=O)CNC(=O)CNC(=O)[C@H](CCC(=O)O)NC(=O)CNC(=O)[C@H](CCCNC(=N)N)NC(=O)[C@H](Cc1ccc(-c2ccccc2)cc1)NC(=O)[C@@H](CS)NC(=O)[C@@H](Cc1cccnc1)NC(=O)[C@@H]1CCCN1)C(=O)N[C@H](C(=O)N[C@@H](CCCNC(=N)N)C(=O)N[C@@H](CCCNC(=N)N)C(=O)N[C@@H](C)C(=O)N[C@@H](CC(=O)O)C(=O)N[C@@H](CCCNC(=N)N)C(=O)N[C@@H](C)C(=O)N[C@@H](C)C(=O)N[C@H](C(=O)N1CCC[C@H]1C(=O)O)C(C)C)C(C)C` [P2] (H-P[d3Pal][dC][Bip]RGEGGGGIVRRADRAAVP-OH; N-terminus and C-terminus assumed), the “Survival after two injections (G3) versus single injection (G2)” value ([1]; 10 mg/kg iv 5 minutes after LPS iv and again 2 hours later, n = 12, Figure 4(a) G3) is reported as “less mice survived”, the “Survival versus LPS-treated control group” value ([1]; single 10 mg/kg iv 5 minutes after LPS iv, n = 12, Figure 4(a) G2) is reported as “significant difference with the LPS-treated control group” and the level at time molar at 100 min [2] is reported as 1540 nM. For the same molecule, the “Time at which the peak plasma level was reached” value ([3]; ip, 150 mg/kg) was no more than 13 min, the “Time an effective P2 concentration (above 2 μM) remained in plasma” value ([3]; iv, 10 mg/kg) was 6 min and the “Time the effective plasma concentration of P2 lasted” value ([3]; iv, 90 mg/kg) was “less than 30 minutes”. The IC50 (MMP-8; ref [10]) was 350 nM, the IC50 (MMP-9; ref [10]) was 1360 nM and the IC50 (TACE; ref [10]) was 1950 nM.
For IVRRADRAAVP [ES-2], the IC50 (MMP-8; ref [10]) is listed as greater than 500000 nM, the IC50 (MMP-9; ref [10]) is listed as greater than 500000 nM and the IC50 (TACE; ref [10]) is listed as greater than 500000 nM.
For IVRRADRAAVPGGGGRGD [HM-3], the in vivo half-life [4] is given as 27 min.
In the case of “PRC[Bip]CGE (cysteine pairing not given here) [Regasepin 1]”, the IC50 (MMP-8; ref [8]) is listed as 3000 nM, the IC50 (MMP-9; ref [8]) is listed as 1500 nM and the IC50 (TACE; ref [8]) is listed as 5000 nM.
For “Pro-(D-Pyr)-(D-Cys)-Bip-Arg-Gly-Glu [Inhibitor 2]”, the IC50 (MMP-8; ref [11]) is given as 800 nM, the IC50 (MMP-9; ref [11]) is given as 2750 nM and the IC50 (TACE; ref [11]) is given as 5500 nM.
In the case of “Pro-Pyr-Cys-Bip-Arg-Gly-Glu [Regasepin 2]”, the “Protective effect (survival), positive control” value ([1]; 35 mg/kg iv 5 minutes after LPS iv, n = 12, Figures 4(b)-4(d)) is listed as “significant protective effect”, the IC50 (MMP-8; ref [9]) is listed as 10000 nM and the IC50 (MMP-9; ref [9]) is listed as 800 nM. For the same molecule, the IC50 (TACE; ref [9]) was 1500 nM and the “Protection from endotoxin shock” value [5] was “protect mice from endotoxin shock”.
